The subject of test [1] is Gram-negative and Gram-positive bacteria. It counts as cell-based. The note with it: with the exception of K. pnuemoniae. The text has this:
The ESKAPE bacteria consist of the most common multidrug resistant and nosocomial bacterial pathogens including both Gram-positive and Gram-negative species (Pendleton et al., Expert Rev. Anti-infect. Ther. 11, 297-308 (2013)). […] The broad-spectrum antimicrobial activity of RMG9-11 naturally lead to concerns about mammalian cytotoxicity, especially since the membranes of fungi and mammals have similar phospholipid compositions.
The minimum inhibitory concentration (MIC) of peptoids against the ESKAPE bacteria (Enterococcus faecium ATCC 6569; Staphylococcus aureus ATCC 29213; Klebsiella pneumoniae ATCC 13883; Acinetobacter baumanii ATCC 19606; Pseudomonas aeruginosa ATCC 25619; Enterococcus faecalis ATCC 29212; and Escherichia coli ATCC 25922) was determined following CLSI guidelines (CLSI. Methods for Dilution Antimicrobial Susceptibility Tests for Bacteria That Grow Aerobically, 11th Edition. Clinical and Laboratory Standards Institute, 2018). The MIC against Mycobacterium smegmatis was also determined following CLSI guidelines (Woods, G. L. et al. Susceptibility Testing of Mycobacteria, Nocardiae, and Other Aerobic Actinomycetes, 2nd edition. (2011)). […] Following incubation for the ESKAPE bacteria, PRESTO BLUE (10 μL) was added to each well and incubated at 37° C. for one hour before measuring fluorescence on a SPECTRAMAX M5 plate reader (Ex. 555 nm; Em. 585 nm). […]

For the next test, the system named is C. albicans. It counts as cell-based, Candida albicans. As to conditions: planktonic, 24 h, RPMI-MOPS.
A further test deals with C. albicans M1. It is filed as cell-based, Candida albicans. As to conditions: reference strain.
The subject of another test is C. albicans M4. It counts as cell-based, Candida albicans. As to conditions: fluconazole susceptible strain.
For another test, the system named is C. albicans M5. It counts as cell-based, Candida albicans. As to conditions: fluconazole resistant strain.
The subject of test [2] is fluconazole resistant and susceptible strains of C. albicans. It counts as cell-based, Candida albicans. As to conditions: regardless of fluconazole susceptibility.
Another test has as its system C. albicans M3. It is filed as cell-based, Candida albicans. The note with it: fluconazole resistant strain.
In another test the test system is C. albicans M6. It is filed as cell-based, Candida albicans. The note with it: fluconazole susceptible strain.
For the next test, the system named is C. albicans M7. It is filed as cell-based, Candida albicans. The note with it: fluconazole resistant strain.
The test system of the next test is C. albicans ATCC 64124. It counts as cell-based, Candida albicans. The note with it: resistant to amphotericin B, fluconazole, caspofungin, flucytosine.
The subject of the next test is C. albicans M2. It counts as cell-based, Candida albicans. As to conditions: fluconazole resistant strain.

Converted amounts (≈) assume the structure as drawn. Numbered stars: 1 amine (or outer) side, 2 acyl side, 3 side chain; on linkers, the order of the positions; unused ones are H or OH. Square brackets hold non-standard residues; d marks the D form. Peptide text beside a SMILES is read from it. N(tridecyl)Gly = CCCCCCCCCCCCCNCC(=O)O; X1 = CC(c1ccccc1)N(CC(=O)[*:2])[*:1]; NFurfurylGly = O=C(O)CNCc1ccco1; Gly(N(CH2)3NH2) = NCCCNCC(=O)O; Nphe = O=C(O)CNCc1ccccc1; NPrGly = CCCNCC(=O)O; Nlys = NCCCCNCC(=O)O

As for `CCCCCCCCCCCCCNCC(=O)N(CCC)CC(=O)N(CC(=O)N(CCCCN)CC(=O)N(CC(=O)N(CC(=O)N(CCCN)CC(N)=O)Cc1ccccc1)Cc1ccco1)C(C)c1ccccc1` (centres unmarked) [RMG9-11] (H-[N(tridecyl)Gly][NPrGly][X1][Nlys][NFurfurylGly][Nphe][Gly(N(CH2)3NH2)]-NH2), the “activity against Gram-negative and Gram-positive bacteria (MIC)” value in [1] was 3.13 to 12.5 µg/mL. Besides, the “MIC C. albicans” value with C. albicans worked out at 6.25 µg/mL (≈ 5.99 µM). For the same compound, the “MIC C. albicans M1” value against C. albicans M1 was found to be 6.25 µg/mL (≈ 5.99 µM). Moreover, the “MIC C. albicans M4” value against C. albicans M4 turned out to be 12.5 µg/mL (≈ 12 µM). The “MIC C. albicans M5” value against C. albicans M5 is 12.5 µg/mL (≈ 12 µM). Further, the “MICs against fluconazole resistant and susceptible strains of C. albicans” value in [2] was in the range of 6.25 to 12.5 µg/mL. Moreover, in the test on C. albicans M3, the “MIC C. albicans M3” value amounted to 12.5 µg/mL (≈ 12 µM). Besides, the “MIC C. albicans M6” value against C. albicans M6 is 6.25 µg/mL (≈ 5.99 µM). Also, the “MIC C. albicans M7” value with C. albicans M7 was determined as 6.25 µg/mL (≈ 5.99 µM). Further, the “MIC C. albicans ATCC 64124” value against C. albicans ATCC 64124 is 6.25 µg/mL (≈ 5.99 µM). In the test on C. albicans M2, the “MIC C. albicans M2” value is 12.5 µg/mL (≈ 12 µM).

For the origin of these results see patent publication US20240391889A1, “ANTIMICROBIAL COMPOUNDS AND THE METHODS OF USE” (priority 2021, published 2024).
